Assays:
BRD2, BRD3 and BRD4 = test: Immunoblot degradation of BET proteins in HEK293 cells; type: cell-based, human
Procedure: To evaluate the ability of trivalent compounds to induce intracellular degradation of BET proteins, the inventors first treated human HEK293 cells for 4 hours at 1 μM concentration and assessed levels of BRD2, BRD3 and BRD4 by western blot. […] To confirm the greater activity of VHL-based compounds compared to CRBN-based PROTACs they next used live cell continual luminescent monitoring of CRISPR/Cas9 endogenously tagged HiBiT-BRD4 in HEK293 cells over 24 h^29,31. […] To confirm greater potency of VHL-based compounds, the inventors evaluated growth inhibition profiles of BET-sensitive cancer cell lines MV4; 11 (FIG. 1f), A549 and HL-60 (FIG. 6c) with compound treatments. […] Together, the initial screens support greater activity of structure-guided designed VHL degraders over their homologous CRBN molecules.
(§1) Degradation assays. MV4; 11 cells were seeded at 1×10^6 cells/mL of 10 cm dishes 12-24 h before treatment. 22Rv1 and HEK293 cells were seeded at 2.5-6×10^5 cells/well of 6 well plates 12-24 h before treatment. Cells were treated with test compounds with and without inhibitors as indicated or an equivalent volume of DMSO and lysed at the stated time point. For lysis, cells were washed twice in ice cold PBS (Invitrogen) then lysed in 250 μL/plate for MV4; 11 cells or 80 μL/well for 22Rv1 and HEK293 cells of ice cold lysis buffer containing 50 mM Tris hydrochloride pH 7.4, 150 mM sodium chloride, 1 mM EDTA pH 7.4, 1% v/v Triton X-100, 1×Halt™ Protease Inhibitor Cocktail (ThermoFisher). Lysates were sonicated, cleared by centrifugation at 4° C., at 15800×g for 10 mins and the supernatants stored at −80° C. Protein concentration was determined by BCA assay (Pierce) and the absorbance at 562 nm measured by spectrophotometry (NanoDrop ND1000). […] Bands were detected using a ChemiDoc MP imaging system (BioRad) and quantified (Image Studio Lite, version 5.2) with normalisation to β-actin and the DMSO control per time point. […]

[1] = system: HiBiT-BRD2, BRD3, and BRD4; test: Degradation washout experiment, CRISPR HiBiT-BET HEK293 cells; type: cell-based, human; details: 100 nM for 3.5 h then washout, monitored 50 h
Procedure: Media containing the 10 nM and/or 100 nM compounds was removed at 3.5 h, indicated on the graphs, and replaced with media lacking compounds for the remainder of the experiment. Luminescence (RLU) was continuously monitored over a 50 h time period and is plotted normalized to the DMSO control as Fractional RLU.
To assess whether the trivalent PROTAC induced also a more sustained degradation of BET proteins in cells compared to MZ1 or (R,S)-SIM1, degradation washout experiments were performed. CRISPR HiBiT-BET HEK293 cells were treated with equivalent concentration (100 nM) of SIM1, (R,S)-SIM1 and MZ1 compounds for 3.5 h, then media was removed and replaced with media lacking compounds. […] The HiBiT-BET protein levels were continuously monitored from the initial addition of the compounds and immediately after the wash for a total time of 50 h.

22Rv1 cells [2] = test: Caspase-Glo 3/7 assay; type: cell-based; details: 22Rv1, 24 h
Procedure: Caspase-Glo® 3/7 assays. 22Rv1 cells were seeded at 10,000 cells/well of white 96 well plates (Corning #3917) 12-24 h before treatment with test compounds with and without inhibitors or an equivalent volume of DMSO for 24 h. 100 μL/well of Caspase-Glo@ 3/7 Reagent (Promega) was added and the plate shaken at 500 rpm for 30 seconds. The plate was incubated for 2 h and luminescence measured using a PHERAstar FS plate reader (BMG Labtech).

22Rv1 cells [3] = test: PARP cleavage immunoblot in 22Rv1 cells; type: cell-based; details: 22Rv1, 10 nM, 24 h (MT1, MZ1 up to 48 h)
Procedure: Next, the inventors assessed the functional effects of SIM1 on the viability of 22Rv1 cancer cells. […] Cells died of apoptosis as indicated by prevented cleavage of PARP upon co-treatment with QVD-OPh, a pan-caspase inhibitor, and not of necroptosis, as shown by co-treatment with Necrostatin-1 (FIG. 3d and FIG. 10a).
as §1, with “Lysates were sonicated, cleared by centrifugation at 4° C., at 15800×g for 10 mins and the supernatants stored at −80° C.” left out

HiBiT-BRD4 [4] = biological target: T1, HiBiT-BRD4 (Homo sapiens, UniProt O60885); test: NanoBRET target engagement, permeabilized and live cells; type: cell-based; details: for IC80: live cell format, unit given with each value, read-out: IC80 for tracer displacement
T1 construct: endogenously HiBiT tag the N-terminal genomic loci of BRD2, BRD3, or BRD4; endogenous in cells; host or cells: HEK293 stably expressing LgBiT, CRISPR/Cas9 edited
Procedure: Cells were treated with a fluorescent BET tracer, then incubated with the indicated compounds at various concentrations to measure competitive displacement.
(§2) NanoBRET Target Engagement and Residence Time. For target engagement experiments in live and permeabilized cells, CRISPR HiBiT-BRD4 HEK293 cells stably expressing LgBiT were plated into white 96-well tissue culture plates at a density of 2×10^4 cells/well. Cells were equilibrated for 1 h with energy transfer probes and the indicated test compound prior to NanoBRET measurements. NanoBRET tracers were prepared at a working concentration of 20× in tracer dilution buffer (12.5 mM HEPES, 31.25% PEG-400, pH 7.5). NanoBRET BRD Tracer-02 was added to cells at a final concentration of 0.5 μM. To measure NanoBRET in live cells, NanoBRET NanoGlo Substrate and Extracellular NanoLuc Inhibitor (Promega) were added according to the manufacturer's recommended protocol, and filtered luminescence was measured on a GloMax Discover luminometer equipped with 450 nm BP filter (donor) and 600 nm LP filter (acceptor) using 0.3 s integration time. To measure NanoBRET in permeabilized cells, digitonin was added to the cells to a final concentration of 50 μg/mL and Extracellular NIuc inhibitor was omitted during the detection step. […] Cells were incubated in 15 mL conical tubes with caps loosened in a tissue culture incubator for 1 h. Following incubation, cells were spun at 300×g for 5 min, washed once with Opti-MEM, spun a second time at 300×g for 5 min, then resuspended with fresh Opti-MEM before plating at 2×10^4 cells/well. NanoBRET BRD Tracer-02 was added at a final concentration of 0.5 μM cells and kinetic NanoBRET measurements were collected on a GloMax Discover. NanoBRET ratios were expressed in milliBRET units and calculated according to the equation in the NanoBRET Ubiquitination, Ternary Complex and Biosensor Experiments section.

HiBiT-BRD4 [5] = biological target: T1, HiBiT-BRD4; test: NanoBRET live cell residence time; type: cell-based; details: live cells
Procedure: as §2

MV4; 11 cells = test: Correlative cell viability in cMyc-HiBiT MV4;11 cells (CellTiter-Glo); type: cell-based; details: 1 nM, after 6 h
Procedure: Monitoring cMyc Loss and Cell Viability in MV4; 11 Cells. CRISPR cMyc-HiBiT MV4; 11 cells (Promega) were plated at a density of 5×10^4 cells per well in solid, white 96-well tissue culture plates (Corning Costar #3917). Following an overnight incubation, they were treated with 1-100 nM concentration of the indicated compounds and at the plotted time points, cMyc levels were determined using luminescent measurement with NanoGlo HiBiT lytic reagent (Promega). Replicate plate of all compound treatments were prepared and at identical timepoints as the protein level measurements, cell viability was measured using Cell-Titer Glo (Promega). Plates were shaken on an orbital shaker for 10-20 min before reading luminescence on a GloMax Discover Microplate Reader (Promega).

[6] = system: VHL and full-length BRD4 WT, N140F, or N433F; test: Kinetic NanoBRET ternary complex assay, NanoLuc-BRD4 with HaloTag-VHL; type: cell-based, human
Procedure: NanoBRET Ubiquitination, Ternary Complex, and Biosensor Experiments. For endogenous live cell BET:Ubiquitin and BET:VHL assays, CRISPR HiBiT-BRD2, HiBiT-BRD3, and HiBiT-BRD4 HEK293 cells stably expressing LgBiT were transfected with 2 μg of HaloTag-UBB or HaloTag-VHL vectors in 6-well plates using FuGENE HD (Promega). For full transient NanoBRET experiments with NanoLuc-BRD4 WT, N433F, or N140F mutants, HEK293 cells (8×10^5) were co-transfected with 0.02 μg NanoLuc-BRD4 and 2 μg of HaloTag-VHL vectors. For transient NanoBRET experiments with the BRD4 NL-BD1-BD2-HT biosensor containing either the WT tandem BD1-BD2 domain (AA 44-460) or containing the N433F mutation, HEK293 cells (8×10^5) were transfected with 0.02 μg biosensor plasmid and 2 μg carrier DNA. […] NanoBRET NanoGlo (Promega) substrate was added and BRET was measured two hours post-compound treatment using a GloMax Discover Microplate Reader (Promega). Dual filtered luminescence was collected with a 460/80 nm bandpass filter and a 610 nm long pass filter (acceptor, HaloTag NanoBRET ligand) using an integration time of 0.5 s. For all NanoBRET experiments, background subtracted NanoBRET ratios expressed in milliBRET units were calculated from the equation: […]

Compound: Cc1ncsc1-c1ccc(CNC(=O)[C@@H]2C[C@@H](O)CN2C(=O)[C@@H](NC(=O)COCC(C)(COCCOCCOCCNC(=O)C[C@@H]2N=C(c3ccc(Cl)cc3)c3c(sc(C)c3C)-n3c(C)nnc32)COCCOCCOCCNC(=O)C[C@H]2N=C(c3ccc(Cl)cc3)c3c(sc(C)c3C)-n3c(C)nnc32)C(C)(C)C)cc1 (stereo partly drawn) [(R,S)-SIM1]
- degradation of BRD2, BRD3 and BRD4 by western blot (BRD2, BRD3 and BRD4; HEK293 cells, 1 μM, 4 h): behave similarly to MZ1 and less potently than SIM1
- BET protein level after washout [1]: greater and occurred faster than those observed with SIM1

Compound: Cc1ncsc1-c1ccc([C@H](C)NC(=O)[C@@H]2C[C@@H](O)CN2C(=O)[C@@H](NC(=O)COCCCOCCNC(=O)C[C@@H]2N=C(c3ccc(Cl)cc3)c3c(sc(C)c3C)-n3c(C)nnc32)C(C)(C)C)cc1 [ARV-771]
- EC50 (22Rv1 cells [2]): 0.09 µM

Compound: Cc1ncsc1-c1ccc(CNC(=O)[C@@H]2C[C@@H](O)CN2C(=O)[C@@H](NC(=O)COCCOCCOCCNC(=O)C[C@@H]2N=C(c3ccc(Cl)cc3)c3c(sc(C)c3C)-n3c(C)nnc32)C(C)(C)C)cc1 [MZ1]
- BET protein level after washout [1]: greater and occurred faster than those observed with SIM1
- PARP cleavage / cell death (22Rv1 cells [3]): did not cause observable PARP cleavage
- EC50 (22Rv1 cells [2]): 0.15 µM
- IC80 (HiBiT-BRD4 [4]): 10 µM
- residence time on BRD4 (HiBiT-BRD4 [5]): residence time between the monovalent and bivalent BET inhibitors

Compound: Cc1ncsc1-c1ccc(CNC(=O)[C@@H]2C[C@H](O)CN2C(=O)[C@@H](NC(=O)COCC(C)(COCCOCCOCCNC(=O)C[C@@H]2N=C(c3ccc(Cl)cc3)c3c(sc(C)c3C)-n3c(C)nnc32)COCCOCCOCCNC(=O)C[C@@H]2N=C(c3ccc(Cl)cc3)c3c(sc(C)c3C)-n3c(C)nnc32)C(C)(C)C)cc1 [cis-SIM1, N,N′-(11-((2-(((S)-1-((2S,4S)-4-hydroxy-2-((4-(4-methylthiazol-5-yl)benzyl)carbamoyl)pyrrolidin-1-yl)-3,3-dimethyl-1-oxobutan-2-yl)amino)-2-oxoethoxy)methyl)-11-methyl-3,6,9,13,16,19-hexaoxahenicosane-1,21-diyl)bis(2-((S)-4-(4-chlorophenyl)-2,3,9-trimethyl-6H-thieno[3,2-f][1,2,4]triazolo[4,3-a][1,4]diazepin-6-yl)acetamide)]
- measurable cellular death (MV4; 11 cells): not
- cell permeability (HiBiT-BRD4 [4]; inferred from live versus permeabilized cells): readily cell-permeable
- IC80 (HiBiT-BRD4 [4]): 0.1 µM
- shift of binding affinity to BRD4 compared to MT1 (HiBiT-BRD4 [4]; live cells): 10 ×
- binding to endogenous HiBiT-BRD4 (HiBiT-BRD4 [4]; permeabilized cells): near-identical binding affinities and IC50 values
- residence time on BRD4 (HiBiT-BRD4 [5]): identical displacement kinetics as MT1
- ternary complex formation [6]: not

— patent US20240252654A1, “IMPROVED SMALL MOLECULES” (University of Dundee, priority 2020, published 2024)
